In ChEMBL document CHEMBL1130660, “Design and synthesis of a tetrahydropyran-based inhibitor of mammalian ribonucleotide reductase” (Bioorg Med Chem Lett, 1998):

Legend:
Format in all cases: protein-complex assay
[1] = target: T1, Ribonucleoside-diphosphate reductase RR1 (Homo sapiens) (UniProt P23921+Q7LG56+P31350); experiment: Mammalian ribonucleotide reductase (mRR) inhibitory activity at a dose of 30 uM
[2] = target: T1, Ribonucleoside-diphosphate reductase RR1 (Homo sapiens); experiment: Mammalian ribonucleotide reductase (mRR) inhibitory activity at a dose of 1000 uM
[3] = target: T1, Ribonucleoside-diphosphate reductase RR1 (Homo sapiens); experiment: Mammalian ribonucleotide reductase (mRR) inhibitory activity at a dose of 500 uM
[4] = target: T1, Ribonucleoside-diphosphate reductase RR1 (Homo sapiens); experiment: Mammalian ribonucleotide reductase (mRR) inhibitory activity at a dose of 300 uM
[5] = target: T1, Ribonucleoside-diphosphate reductase RR1 (Homo sapiens); experiment: Mammalian ribonucleotide reductase (mRR) inhibitory activity at a dose of 100 uM
[6] = target: T1, Ribonucleoside-diphosphate reductase RR1 (Homo sapiens); experiment: Mammalian ribonucleotide reductase (mRR) inhibitory activity at a dose of 0 uM

Residual RR activity [1]: 86%
Residual RR activity [2]: 32%
Residual RR activity [3]: 48%
Residual RR activity [4]: 64%
Residual RR activity [5]: 73%
Residual RR activity [6]: 100%
Compound: CC(=O)N[C@@H](Cc1ccccc1)C(=O)NC[C@@H]1O[C@H]([C@@H](C)C(=O)N[C@@H](CC(=O)O)C(=O)N[C@@H](Cc2ccccc2)C(=O)O)[C@@H](OCC(=O)O)C[C@H]1OCC(C)C
